From ChEMBL document CHEMBL1629515, “Synthesis and biological evaluation of oleanolic acid derivatives as inhibitors of protein tyrosine phosphatase 1B” (J Nat Prod, 2010)

The compounds below were run against T1, Tyrosine-protein phosphatase non-receptor type 1 (Homo sapiens, UniProt P18031) (assay: Inhibition of recombinant PTP1B expressed in Escherichia coli BL21 after 30 mins by spectrophotometry).
T1 sequence (P18031 whole entry): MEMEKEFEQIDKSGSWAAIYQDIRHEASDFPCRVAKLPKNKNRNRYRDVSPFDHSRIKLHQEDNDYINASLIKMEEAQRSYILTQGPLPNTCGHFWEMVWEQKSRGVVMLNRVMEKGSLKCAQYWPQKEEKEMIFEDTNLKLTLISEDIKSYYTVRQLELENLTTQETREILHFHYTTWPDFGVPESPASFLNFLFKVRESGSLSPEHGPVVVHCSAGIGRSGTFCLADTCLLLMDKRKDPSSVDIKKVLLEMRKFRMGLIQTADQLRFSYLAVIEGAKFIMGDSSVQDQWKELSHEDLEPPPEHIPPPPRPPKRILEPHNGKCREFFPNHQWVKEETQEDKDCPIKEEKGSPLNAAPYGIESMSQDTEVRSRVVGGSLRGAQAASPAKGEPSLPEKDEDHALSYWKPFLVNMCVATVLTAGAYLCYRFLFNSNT

IC50 [µM] | SMILES
4.11 | CC1(C)CC[C@]2(COC(=O)CC(=O)O)CC[C@]3(C)C(=CC[C@@H]4[C@@]5(C)CCC(=O)C(C)(C)[C@@H]5CC[C@]43C)[C@@H]2C1
6.39 | CC1(C)CC[C@]2(COC(=O)CCCC(=O)O)CC[C@]3(C)C(=CC[C@@H]4[C@@]5(C)CCC(=O)C(C)(C)[C@@H]5CC[C@]43C)[C@@H]2C1
3.12 | CC1(C)CC[C@]2(COC(=O)c3ccccc3C(=O)O)CC[C@]3(C)C(=CC[C@@H]4[C@@]5(C)CCC(=O)C(C)(C)[C@@H]5CC[C@]43C)[C@@H]2C1
4.61 | CC1(C)CC[C@]2(COC(=O)CCC(=O)O)CC[C@]3(C)C(=CC[C@@H]4[C@@]5(C)CCC(=O)C(C)(C)[C@@H]5CC[C@]43C)[C@@H]2C1
